Reference: PubChem BioAssay (NCI)
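Step 1: Grow cells in 96-well plates. Step 2: Expose to compound for 48 hours at 5 concentrations. Step 3: Interpolate endpoints linearly; if unreached, use highest concentration. GI50 = concentration required for 50% inhibition of growth. TGI denotes the concentration required for complete inhibition of growth.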

Columns and labels:
Assay in all cases: inhibition of tumour cell growth, NCI panel, 48 h
A498 renal = system: A498 renal
HT29 colon = system: HT29 colon
UACC-257 melanoma = system: UACC-257 melanoma
CCRF-CEM leukemia = system: CCRF-CEM leukemia
IGROV1 ovarian = system: IGROV1 ovarian
HCT-15 colon = system: HCT-15 colon
RPMI-8226 leukemia = system: RPMI-8226 leukemia
NCI-H226 lung = system: NCI-H226 lung

SMILES | GI50 (A498 renal) | TGI (A498 renal) | GI50 (HT29 colon) | TGI (HT29 colon) | GI50 (UACC-257 melanoma) | TGI (UACC-257 melanoma) | GI50 (CCRF-CEM leukemia) | TGI (CCRF-CEM leukemia) | GI50 (IGROV1 ovarian) | TGI (IGROV1 ovarian) | GI50 (HCT-15 colon) | TGI (HCT-15 colon) | GI50 (RPMI-8226 leukemia) | TGI (RPMI-8226 leukemia) | GI50 (NCI-H226 lung) | TGI (NCI-H226 lung)
CCOC(=O)c1c(-c2ccccc2)n2c(=O)cc(C)c3c(O)c(O)cc1c32 | 13 µM | 37.6 µM | 7.18 µM | 84 µM | 6.38 µM | 28.7 µM | 1.59 µM | 13.9 µM | 4.99 µM | 19.2 µM | 1.66 µM | 19.5 µM | 3.98 µM | 17.9 µM | 11.4 µM | 42.1 µM
O=C(O)CN1C(=O)OC(c2ccccc2)C1=O (stereo unspecified) | – | > 100 µM | – | > 100 µM | – | > 100 µM | – | > 100 µM | – | > 100 µM | – | > 100 µM | – | > 100 µM | – | > 100 µM
c1cc[n+](Cc2c3ccccc3cc3c2ccc2ccccc23)cc1 | 14.4 µM | 40.9 µM | 2.77 µM | 11.2 µM | 2.34 µM | 5.48 µM | 4.73 µM | 24 µM | 1.67 µM | 5.93 µM | > 100 µM | > 100 µM | 2.31 µM | 8.87 µM | 2.92 µM | 24.8 µM
COc1ccc(OC)c(C2=C(c3cn(C)c4ccccc34)C(=O)NC2=O)c1 | > 15.6 µM | > 25 µM | > 21.5 µM | > 25 µM | > 25 µM | > 25 µM | > 25 µM | > 25 µM | > 25 µM | > 25 µM | > 23.9 µM | > 25 µM | > 25 µM | > 25 µM | > 25 µM | > 25 µM
COc1cccc2nc(Nc3cccc(NC(=O)c4ccc(N5CCN(C)CC5)c(C(F)(F)F)c4)c3)ccc12 | 1.8 µM | 6.46 µM | 0.712 µM | 1.61 µM | 1.36 µM | 3.51 µM | 1.4 µM | 50 µM | 1.25 µM | 4.24 µM | 0.937 µM | 2.03 µM | 1.65 µM | 6.44 µM | 2.26 µM | 8.61 µM
COc1ccc2c(c1)OCC1c3cc(OC)c4ccccc4c3OC21 (stereo unspecified) | 25 µM | > 100 µM | 3.84 µM | > 100 µM | 35.5 µM | > 100 µM | 16.2 µM | > 100 µM | 4.98 µM | 21.6 µM | 6.06 µM | > 100 µM | 10.6 µM | > 100 µM | 15.6 µM | 90.2 µM
O=S(=O)(NCCNc1nccc(-c2c(-c3ccc(F)cc3)nc3sccn23)n1)c1ccc(O)cc1 | 8.8 µM | 23.2 µM | 2.09 µM | 37.4 µM | 5.84 µM | 34.7 µM | 2 µM | 29.8 µM | 1.7 µM | 13.7 µM | 5 µM | > 100 µM | 4.52 µM | 29.3 µM | 6.91 µM | 21.9 µM
C=C(C(=O)c1ccccc1)C(NC(C)(C)C)c1ccccc1 (stereo unspecified) | 1.7 µM | 3.25 µM | 1 µM | 3.13 µM | 1.69 µM | 4.81 µM | 0.629 µM | 43.7 µM | 2.3 µM | 6.9 µM | 1.88 µM | 10 µM | 1.84 µM | 6.44 µM | 1.63 µM | 4.56 µM
CC(C)n1cc(-c2ccc3c(c2)N(C)CC3)c2c(NS(=O)(=O)c3ccn(C)n3)ccnc21 | 36.3 µM | > 100 µM | 71.9 µM | > 100 µM | > 100 µM | > 100 µM | > 100 µM | > 100 µM | 59.1 µM | > 100 µM | 35.9 µM | > 100 µM | 54.2 µM | > 100 µM | 39.4 µM | > 100 µM
O=C1NC(c2ccc3ccccc3c2)Nc2ccccc21 (stereo unspecified) | – | > 100 µM | – | > 100 µM | – | > 100 µM | – | > 100 µM | – | > 100 µM | – | > 100 µM | – | 69.8 µM | – | > 100 µM
CCN1CCN(Cc2ccc(NC(=O)Nc3nc(-c4cc(OC)c(OC)c(OC)c4)cs3)cc2C(F)(F)F)CC1 | 1.96 µM | 5.48 µM | 0.39 µM | 1.48 µM | 1.69 µM | 3.08 µM | 1.87 µM | 6.07 µM | 1.93 µM | 4.59 µM | 1.41 µM | 3.55 µM | 1.63 µM | 4.24 µM | 1.68 µM | 3.82 µM
COc1ccc2[nH]c(C(=O)OCc3ccc4c(Br)cc(Br)c(O)c4n3)cc2c1 | 1.8 µM | 3.31 µM | 0.39 µM | 1.49 µM | 1.38 µM | 2.85 µM | 0.331 µM | > 100 µM | 0.418 µM | 1.67 µM | 0.355 µM | 1.23 µM | 0.308 µM | 1.29 µM | 1.3 µM | 2.81 µM
CNC(=O)/C=C/C1=CN2C(=O)c3ccc(C)c(O)c3NC(OC)C2C1 (stereo unspecified) | – | 0.713 µM | – | 3.29 µM | – | < 0.0169 µM | – | > 4.64 µM | – | > 100 µM | – | 4.48 µM | – | 16.2 µM | – | 0.0731 µM
CCOc1cc(Cl)c(C(C)NC(=O)c2cccc(OC)c2)cc1OCC (stereo unspecified) | 0.561 µM | 21.9 µM | 4.23 µM | 44.6 µM | 37 µM | > 100 µM | 11.7 µM | > 100 µM | 17.5 µM | > 100 µM | 4.06 µM | > 100 µM | 16.1 µM | > 100 µM | 37.4 µM | > 100 µM
CO/N=C(/C)COc1ccc2c(c1)oc(=O)c1cc(OC)ccc12 | > 100 µM | > 100 µM | > 100 µM | > 100 µM | > 100 µM | > 100 µM | > 100 µM | > 100 µM | > 100 µM | > 100 µM | > 100 µM | > 100 µM | > 100 µM | > 100 µM | > 100 µM | > 100 µM
